Experimental data: patent US8372967B2, “Compounds and methods for modulating expression of GCCR” (Isis Pharmaceuticals, Inc., priority 2006, dated 2013)
Strand notation (5' to 3'): a small letter for the sugar, then the base; units joined by * are phosphorothioate-linked, units joined directly phosphodiester-linked; [ ] holds rarer units or linkages, { } end groups; capitals alone tell only the bases. e = 2'-O-(2-methoxyethyl) (MOE); [5mC] = 5-methylcytosine; d = 2'-deoxy (DNA)

Legend:
Format in all cases: in vivo, mouse
SGLT2 mRNA = SGLT2 mRNA in kidney of Balb/c mice, twenty 1-10-1 MOE gapmers, PPS 534 and PPS 553 (Table 74); conditions: i.p. 350 nmol/kg twice per week for two weeks
Procedure: Twenty 1-10-1 MOE gapmers that are complementary to human/monkey/mouse/rat SGLT2 were designed, synthesized and tested in vivo for suppression of SGLT2 mRNA levels in kidney. Data are averages from two experiments in which male 6-week old Balb/c mice were administered intraperitoneal injections of 350 nmol/kg of oligonucleotide, twice per week, over a period of two weeks (a total of four injections). Mice were sacrificed 48 hours following the last administration and evaluated for SGLT2 mRNA levels in kidney. SGLT2 mRNA levels were determined by quantitative real-time PCR analysis according to standard procedures, using two different PCR primer probe sets, primer probe set (PPS) 534 and PPS 553. SGLT2 mRNA levels were normalized to cyclophilin mRNA levels, which were also measured by quantitative real-time PCR.

[1] = Triglyceride, cholesterol and glucose levels, pre-bleed and post-bleed, GCGR study (Table 34); design: Triglyceride (TRIG) Pre-Bleed / Triglyceride (TRIG) Post-Bleed / Cholesterol (CHOL) Pre-Bleed / Cholesterol (CHOL) Post-Bleed / Glucose Pre-Bleed / Glucose Post-Bleed: unit not given here; conditions: for Cholesterol (CHOL) Pre-Bleed / Triglyceride (TRIG) Pre-Bleed: pre-treatment bleed; for Cholesterol (CHOL) Post-Bleed / Triglyceride (TRIG) Post-Bleed: post-treatment bleed
Procedure: (§1) Eight-week old male C57/BL6 mice (Jackson Laboratory, Bar Harbor, Me.) were administered a single dose of GCGR oligonucleotide by intraperitoneal injection at a concentration of […]. Each dose group consisted of four animals. Shown in Table 31 are the sequences, motifs and conjugates of the GCGR antisense compounds used in this study. Bolded residues indicate 2′-O-methoxyethyl (2′-MOE) moieties. All compounds comprise phosphorothioate internucleoside linkages throughout and each cytosine is replaced with 5-methylcytosine. ISIS 386626, ISIS 386627 and ISIS 386628 further comprise a C16 conjugate group attached to the 2′-O position of the sugar via a diamide linkage (2′-OCH2C(═O)N(H)(CH2)4N(H)C(═O)—(CH2)15CH3). GCGR antisense compounds target published GCGR sequences, including Genbank® Accession No. BC031885.1 (SEQ ID NO: 7).
(§2) Mice were sacrificed 48 hours following injection to determine serum transaminase levels (Table 32); liver, white adipose tissue (WAT), spleen and kidney weight (Table 33); cholesterol, triglyceride and glucose levels (Table 34); GCGR mRNA levels (Tables 35-41); and full-length and total oligonucleotide concentration in liver and kidney (Table 42). Endpoints were assessed using methods described herein and well known to those of ordinary skill in the art. Data is included from a pre-treatment bleed (Pre-Bleed) and post-treatment bleed (Post-Bleed).

[2] = ALT & AST levels and toxic effects, GCGR study (Table 32); conditions: C57/BL6 mice, pre-treatment bleed
Procedure: as §1, §2

[3] = Organ weights: liver, WAT, spleen, kidney, GCGR study (Table 33); conditions: 48 h
Procedure: as §1, §2

GCGR mRNA = GCGR mRNA levels in liver, C57/BL6 mice, single i.p. dose (Tables 35-41); conditions: for GCGR mRNA levels: Table 35 comparison ISIS 148364 & ISIS 386626
Procedure: Prior to quantitative PCR analysis, primer-probe sets specific to the target gene being measured were evaluated for their ability to be “multiplexed” with a GAPDH amplification reaction. After isolation the RNA is subjected to sequential reverse transcriptase (RT) reaction and real-time PCR, both of which are performed in the same well. RT and PCR reagents were obtained from Invitrogen Life Technologies (Carlsbad, Calif.). […] The RT reaction was carried out by incubation for 30 minutes at 48° C. Following a 10 minute incubation at 95° C. to activate the PLATIN 9M® Taq, 40 cycles of a two-step PCR protocol were carried out: 95° C. for 15 seconds (denaturation) followed by 60° C. for 1.5 minutes (annealing/extension).
170 μL of RiboGreen® working reagent (RiboGreen® reagent diluted 1:350 in 10 mM Tris-HCl, 1 mM EDTA, pH 7.5) was pipetted into a 96-well plate containing 30 μL purified cellular RNA. The plate was read in a CytoFluor® 4000 (PE Applied Biosystems) with excitation at 485 nm and emission at 530 nm.
as §1, §2
To determine whether the phenotypic changes shown above correlated with a decrease in GCGR mRNA, treated animals were evaluated for levels of target mRNA in liver by real time PCR according to methods described herein. Tables 35 to 41 show results from direct comparisons of the antisense compounds targeting GCGR nucleic acid for their effect on target expression. Results are expressed as percent of saline control.

[4] = primer probe set 534, normalized to cyclophilin
[5] = primer probe set 553, normalized to cyclophilin

## 379697 (e[5mC]*dT*dG*dG*d[5mC]*dA*dT*dG*dA*d[5mC]*d[5mC]*eA; antisense) [compound 379697]
SGLT2 mRNA; [4]
  % change in SGLT2 mRNA vs saline: −32.0 % Saline
SGLT2 mRNA; [5]
  % change in SGLT2 mRNA vs saline: −46.3 % Saline

## 379698 (eG*d[5mC]*dA*dG*d[5mC]*d[5mC]*d[5mC]*dA*d[5mC]*d[5mC]*dT*e[5mC]) [compound 379698]
SGLT2 mRNA; [4]
  % change in SGLT2 mRNA vs saline: −11.8 % Saline
SGLT2 mRNA; [5]
  % change in SGLT2 mRNA vs saline: −27.0 % Saline

## 379699 (eG*dG*d[5mC]*dA*dT*dG*dA*dG*d[5mC]*dT*dT*e[5mC]) [compound 379699]
SGLT2 mRNA; [4]
  % change in SGLT2 mRNA vs saline: −83.5 % Saline
SGLT2 mRNA; [5]
  % change in SGLT2 mRNA vs saline: −85.8 % Saline

## 379700 (e[5mC]*d[5mC]*dA*dG*d[5mC]*dA*dT*dG*dA*dG*dT*e[5mC]; antisense) [compound 379700]
SGLT2 mRNA; [4]
  % change in SGLT2 mRNA vs saline: −2.8 % Saline
SGLT2 mRNA; [5]
  % change in SGLT2 mRNA vs saline: −16.4 % Saline

## 379701 (e[5mC]*d[5mC]*dA*dT*dG*dG*dT*dG*dA*dA*dG*eA) [compound 379701]
SGLT2 mRNA; [4]
  % change in SGLT2 mRNA vs saline: −0.3 % Saline
SGLT2 mRNA; [5]
  % change in SGLT2 mRNA vs saline: −11.9 % Saline

## 379702 (eG*d[5mC]*dA*d[5mC]*dA*d[5mC]*dA*dG*d[5mC]*dT*dG*e[5mC]) [compound 379702]
SGLT2 mRNA; [4]
  % change in SGLT2 mRNA vs saline: −87.8 % Saline
SGLT2 mRNA; [5]
  % change in SGLT2 mRNA vs saline: −89.5 % Saline

## 379703 (eG*d[5mC]*d[5mC]*dG*dG*dA*dG*dA*d[5mC]*dT*dG*eA; antisense) [compound 379703]
SGLT2 mRNA; [4]
  % change in SGLT2 mRNA vs saline: −44.2 % Saline
SGLT2 mRNA; [5]
  % change in SGLT2 mRNA vs saline: −45.9 % Saline

## 386626 (antisense GCTTCTCCATCATA; chemistry not fully specified) [compound 386626]
[1]; 6.25 mg/kg group
  Cholesterol (CHOL) Pre-Bleed: 85
  Triglyceride (TRIG) Pre-Bleed: 86
[1]; 6.25 mg/kg single i.p.
  Cholesterol (CHOL) Post-Bleed: 90
  Triglyceride (TRIG) Post-Bleed: 162
[1]; 12.5 mg/kg group
  Cholesterol (CHOL) Pre-Bleed: 82
  Triglyceride (TRIG) Pre-Bleed: 100
[1]; 12.5 mg/kg single i.p.
  Cholesterol (CHOL) Post-Bleed: 76
  Triglyceride (TRIG) Post-Bleed: 148
[1]; 25 mg/kg group
  Cholesterol (CHOL) Pre-Bleed: 87
  Triglyceride (TRIG) Pre-Bleed: 100
[1]; 25 mg/kg single i.p.
  Cholesterol (CHOL) Post-Bleed: 72
  Triglyceride (TRIG) Post-Bleed: 187
[1]; 50 mg/kg group
  Cholesterol (CHOL) Pre-Bleed: 79
  Triglyceride (TRIG) Pre-Bleed: 87
[1]; 50 mg/kg single i.p.
  Cholesterol (CHOL) Post-Bleed: 57
  Triglyceride (TRIG) Post-Bleed: 163
[2]; dose group 6.25 mg/kg
  ALT Pre-Bleed: 26 IU/L
  AST Pre-Bleed: 46 IU/L
[2]; dose group 12.5 mg/kg
  ALT Pre-Bleed: 28 IU/L
  AST Pre-Bleed: 44 IU/L
[2]; dose group 25 mg/kg
  ALT Pre-Bleed: 30 IU/L
  AST Pre-Bleed: 44 IU/L
[2]; dose group 50 mg/kg
  ALT Pre-Bleed: 28 IU/L
  AST Pre-Bleed: 48 IU/L
[3]; 6.25 mg/kg single i.p.
  Organ Weights: Kidney: 100 % saline control
  Organ Weights: Liver: 100 % saline control
  Organ Weights: Spleen: 95 % saline control
  Organ Weights: WAT: 90 % saline control
[3]; 12.5 mg/kg single i.p.
  Organ Weights: Kidney: 97 % saline control
  Organ Weights: Liver: 96 % saline control
  Organ Weights: Spleen: 114 % saline control
  Organ Weights: WAT: 73 % saline control
[3]; 25 mg/kg single i.p.
  Organ Weights: Kidney: 103 % saline control
  Organ Weights: Liver: 109 % saline control
  Organ Weights: Spleen: 120 % saline control
  Organ Weights: WAT: 97 % saline control
[3]; 50 mg/kg single i.p.
  Organ Weights: Kidney: 104 % saline control
  Organ Weights: Liver: 112 % saline control
  Organ Weights: Spleen: 130 % saline control
  Organ Weights: WAT: 77 % saline control
GCGR mRNA; 6.25 mg/kg
  GCGR mRNA levels: 7% of saline control
GCGR mRNA; 12.5 mg/kg
  GCGR mRNA levels: 3% of saline control
GCGR mRNA; 25 mg/kg
  GCGR mRNA levels: 8% of saline control
GCGR mRNA; 50 mg/kg
  GCGR mRNA levels: 0% of saline control

## ISIS 386626: GCGR short antisense compound with C16 conjugate group at 2′-O via diamide linkage (GCTTCTCCATCATA; chemistry not fully specified)
[1]; C57/BL6 mice, 48 hours after single i.p. dose
  Glucose levels (post-bleed): decreased in a dose-dependent manner
GCGR mRNA; single i.p. dose 6.25, 12.5, 25 or 50 mg
  GCGR mRNA expression: greatest decrease in target mRNA
